In patent publication US9884063B2, “Amido-substituted azole compounds” (Bayer Pharma Aktiengesellschaft, priority 2014, dated 2018):
Counter-ions that a name gives are not always drawn.

test system: wildtype Wnt signaling cascade; assay: HEK293 TOP Assay (Super TopFlash luciferase reporter, Wnt-3a stimulated); assay type: cell-based; conditions: Homo sapiens, HEK293, 16 h, HEK293 TOP reporter cell line, Wnt-3a at EC50, 16 hours incubation, compound dilution series 50 μM to 15 nM
Protocol: In order to discover and characterize small molecules which inhibit the wildtype Wnt pathway, a cellular reporter assay was employed. The corresponding assay cell was generated by transfection of the mammalian cell line HEK293 (ATCC, #CRL-1573) with the Super TopFlash vector (Morin, Science 275, 1997, 1787-1790; Molenaar et al., Cell 86 (3), 1996, 391-399). The HEK293 cell line is cultivated at 37° C. and 5% CO2 in DMEM (Life Technologies, #41965-039), supplemented with 2 mM glutamine, 20 mM HEPES, 1.4 mM pyruvate, 0.15% Na-bicarbonate and 10% foetal bovine serum (GIBCO, #10270). Stable transfectants were generated by selection with 300 μg/ml Hygromycin.
In preparation of the assay, the two cell lines were plated 24 hrs before beginning the test at 10000 cells per well in a 384 micro titre plate (MTP) in 30 μl growth medium. […] The recombinant human Wnt-3a was thereby applied between 2500 and 5 ng/ml in two-fold dilution steps.
Selective inhibitory activity for small molecules on the wildtype Wnt pathway was determined after parallel incubation of both (TOP and FOP) HEK293 reporter cell lines with a compound dilution series from 50 μM to 15 nM in steps of 3.16-fold dilutions in CAFTY buffer (130 mM sodium chloride, 5 mM potassium chloride, 20 mM HEPES, 1 mM magnesium chloride, 5 mM sodium bicarbonate, pH 7.4) containing 2 mM Ca^2+ and 0.01% BSA.
The compounds were thereby serially prediluted in 100% DMSO and thereafter 50 fold into the CAFTY compound dilution buffer (described above).

Structure (SMILES) | IC50
CNC(=O)c1nc[nH]c1C(=O)Nc1ccc(NC(=O)c2ccn(C)n2)cc1 [Example 332, N^4-methyl-N^5-(4-{[(1-methyl-1H-pyrazol-3-yl)carbonyl]amino}phenyl)-1H-imidazole-4,5-dicarboxamide] | 9.65 µM
CNC(=O)c1nc[nH]c1C(=O)Nc1ccc(NC(=O)c2ccc(C)c(F)c2)cc1 [Example 328, N^5-{4-[(3-fluoro-4-methylbenzoyl)amino]phenyl}-N^4-methyl-1H-imidazole-4,5-dicarboxamide] | 5.25 µM
O=C(Nc1ccc(NC(=O)c2nc[nH]c2C(=O)NCCN2CCC(O)CC2)cc1)c1ccc(F)cc1 [Example 178, N^4-{4-[(4-fluorobenzoyl)amino]phenyl}-N^5-[2-(4-hydroxypiperidin-1-yl)ethyl]-1H-imidazole-4,5-dicarboxamide] | 1.17 µM
CNC(=O)c1nc[nH]c1C(=O)Nc1ccc(NC(=O)c2cc(F)cc(F)c2F)cc1 [Example 347, N^4-methyl-N^5-{4-[(2,3,5-trifluorobenzoyl)amino]phenyl}-1H-imidazole-4,5-dicarboxamide] | 34.5 µM
CNC(=O)c1nc[nH]c1C(=O)Nc1ccc(NC(=O)c2cccc(C#N)c2)cc1 [Example 311, N^5-{4-[(3-cyanobenzoyl)amino]phenyl}-N^4-methyl-1H-imidazole-4,5-dicarboxamide] | 50 µM
CNC(=O)c1nc[nH]c1C(=O)Nc1ccc(NC(=O)c2cccc(C)c2)cc1 [Example 336, N^4-methyl-N^5-{4-[(3-methylbenzoyl)amino]phenyl}-1H-imidazole-4,5-dicarboxamide] | 11 µM
CNC(=O)c1nc[nH]c1C(=O)Nc1ccc(NC(=O)c2ccc(OC)c(F)c2)cc1 [Example 338, N^5-{4-[(3-fluoro-4-methoxybenzoyl)amino]phenyl}-N^4-methyl-1H-imidazole-4,5-dicarboxamide] | 2.8 µM
CNC(=O)c1nc[nH]c1C(=O)Nc1ccc(NC(=O)c2cc(F)cc(Cl)c2)cc1 [Example 360, N^5-{4-[(3-chloro-5-fluorobenzoyl)amino]phenyl}-N^4-methyl-1H-imidazole-4,5-dicarboxamide] | 15.2 µM
CNC(=O)c1nc[nH]c1C(=O)Nc1ccc(NC(=O)c2ccc(F)cc2)nc1 [Example 115, N^5-{6-[(4-fluorobenzoyl)amino]pyridin-3-yl}-N^4-methyl-1H-imidazole-4,5-dicarboxamide] | 3.55 µM
O=C(Nc1ccc(NC(=O)c2nc[nH]c2C(=O)NCC(F)(F)F)cc1OC(F)(F)F)c1ccc(F)cc1Cl [Example 292, N^4-{4-[(2-chloro-4-fluorobenzoyl)amino]-3-(trifluoromethoxy)phenyl}-N^5-(2,2,2-trifluoroethyl)-1H-imidazole-4,5-dicarboxamide] | 11 µM
O=C(Nc1ccc(NC(=O)c2nc[nH]c2C(=O)NCCF)cc1)c1ccc(F)cc1 [Example 174, N^4-{4-[(4-fluorobenzoyl)amino]phenyl}-N^5-(2-fluoroethyl)-1H-imidazole-4,5-dicarboxamide] | 1.05 µM
CNC(=O)c1nc[nH]c1C(=O)Nc1ccc(NC(=O)c2ccno2)cc1 [Example 354, N^4-methyl-N^5-{4-[(1,2-oxazol-5-ylcarbonyl)amino]phenyl}-1H-imidazole-4,5-dicarboxamide] | 50 µM
Cc1cc(NC(=O)c2[nH]cnc2C(=O)NCCN(C)C)ccc1NC(=O)c1ccccc1Cl [Example 88, N^5-{4-[(2-chlorobenzoyl)amino]-3-methylphenyl}-N^4-[2-(dimethylamino)ethyl]-1H-imidazole-4,5-dicarboxamide] | 2.4 µM
CNC(=O)c1nc[nH]c1C(=O)Nc1ccc(NC(=O)c2cccc(C(F)(F)F)c2Cl)cc1 [Example 358, N^5-(4-{[2-chloro-3-(trifluoromethyl)benzoyl]amino}phenyl)-N^4-methyl-1H-imidazole-4,5-dicarboxamide] | 4.1 µM
O=C(Nc1ccc(NC(=O)c2nc[nH]c2C(=O)NCCN2CCOCC2)cc1)c1ccc(F)cc1 [Example 151, N^4-{4-[(4-fluorobenzoyl)amino]phenyl}-N^5-[2-(morpholin-4-yl)ethyl]-1H-imidazole-4,5-dicarboxamide] | 0.95 µM
CNC(=O)c1nc[nH]c1C(=O)Nc1ccc(NC(=O)c2ccc(Cl)cc2)cc1 [Example 306, N^5-{4-[(4-chlorobenzoyl)amino]phenyl}-N^4-methyl-1H-imidazole-4,5-dicarboxamide] | 3.15 µM

Further lines, results first:

IC50 | Structure (SMILES)
1.15 µM | NC1CCN(C(=O)c2[nH]cnc2C(=O)Nc2ccc(NC(=O)c3ccc(F)cc3Cl)cc2)C1 (centres unmarked) [Example 285, 5-[(3-aminopyrrolidin-1-yl)carbonyl]-N-{4-[(2-chloro-4-fluorobenzoyl)amino]phenyl}-1H-imidazole-4-carboxamide hydrochloride salt]
2.4 µM | O=C(Nc1ccc(NC(=O)c2nc[nH]c2C(=O)NCCO)cc1)c1ccc(F)cc1 [Example 136, N^4-{4-[(4-fluorobenzoyl)amino]phenyl}-N^5-(2-hydroxyethyl)-1H-imidazole-4,5-dicarboxamide]
1.25 µM | CC(C)(CN1CCOCC1)NC(=O)c1[nH]cnc1C(=O)Nc1ccc(NC(=O)c2ccccc2Cl)cc1 [Example 154, N^4-{4-[(2-chlorobenzoyl)amino]phenyl}-N^5-[2-methyl-1-(morpholin-4-yl)propan-2-yl]-1H-imidazole-4,5-dicarboxamide]
7.05 µM | CNC(=O)c1nc[nH]c1C(=O)Nc1ccc(NC(=O)c2ccc(OC)c(OC)c2Cl)cc1 [Example 348, N^5-{4-[(2-chloro-3,4-dimethoxybenzoyl)amino]phenyl}-N^4-methyl-1H-imidazole-4,5-dicarboxamide]
4.8 µM | CNC(=O)c1nc[nH]c1C(=O)Nc1ccc(NC(=O)c2ccc(F)c(F)c2)cc1 [Example 320, N^5-{4-[(3,4-difluorobenzoyl)amino]phenyl}-N^4-methyl-1H-imidazole-4,5-dicarboxamide]
14.3 µM | CNC(=O)c1[nH]cnc1C(=O)Nc1ccc(NC(=O)c2ccc(F)cc2Cl)c(OC(F)(F)F)c1 [Example 291, N^4-{4-[(2-chloro-4-fluorobenzoyl)amino]-3-(trifluoromethoxy)phenyl}-N^5-methyl-1H-imidazole-4,5-dicarboxamide]
0.46 µM | CN1CCN(CCCNC(=O)c2[nH]cnc2C(=O)Nc2ccc(NC(=O)c3ccccc3Cl)cc2)CC1 [Example 192, N^4-{4-[(2-chlorobenzoyl)amino]phenyl}-N^5-[3-(4-methylpiperazin-1-yl)propyl]-1H-imidazole-4,5-dicarboxamide]
5.7 µM | COCCNC(=O)c1[nH]cnc1C(=O)Nc1ccc(NC(=O)c2ccc(F)cc2)cc1 [Example 140, N^4-{4-[(4-fluorobenzoyl)amino]phenyl}-N^5-(2-methoxyethyl)-1H-imidazole-4,5-dicarboxamide]
50 µM | O=C(Nc1ccc(NC(=O)c2nc[nH]c2C(=O)NC(CO)CO)cc1)c1ccc(F)cc1 [Example 150, N^5-(1,3-dihydroxypropan-2-yl)-N^4-{4-[(4-fluorobenzoyl)amino]phenyl}-1H-imidazole-4,5-dicarboxamide]
50 µM | CN(C)C(=O)c1[nH]cnc1C(=O)Nc1ccc(NC(=O)c2ccc(F)cc2)cc1 [Example 144, N^4-{4-[(4-fluorobenzoyl)amino]phenyl}-N^5,N^5-dimethyl-1H-imidazole-4,5-dicarboxamide]
3 µM | O=C(Nc1ccc(NC(=O)c2nc[nH]c2C(=O)NCC(F)F)cc1)c1ccc(F)cc1 [Example 141, N^5-(2,2-difluoroethyl)-N^4-{4-[(4-fluorobenzoyl)amino]phenyl}-1H-imidazole-4,5-dicarboxamide]
50 µM | CNC(=O)c1nc[nH]c1C(=O)Nc1ccc(NC(=O)c2cc(F)c(F)c(Cl)c2)cc1 [Example 362, N^5-{4-[(3-chloro-4,5-difluorobenzoyl)amino]phenyl}-N^4-methyl-1H-imidazole-4,5-dicarboxamide]
50 µM | CC(C)OCCCNC(=O)c1nc[nH]c1C(=O)Nc1ccc(NC(=O)c2ccc(F)cc2Cl)cc1 [Example 383, N^5-{4-[(2-chloro-4-fluorobenzoyl)amino]phenyl}-N^4-[3-(propan-2-yloxy)propyl]-1H-imidazole-4,5-dicarboxamide]
2.65 µM | CC(CNC(=O)c1[nH]cnc1C(=O)Nc1ccc(NC(=O)c2ccc(F)cc2)cc1)N1CCN(C)CC1 (centres unmarked) [Example 205, N^4-{4-[(4-fluorobenzoyl)amino]phenyl}-N^5-[2-(4-methylpiperazin-1-yl)propyl]-1H-imidazole-4,5-dicarboxamide]
10.5 µM | CNC(=O)c1nc[nH]c1C(=O)Nc1ccc(NC(=O)c2ccc(Cl)cc2OC)cc1 [Example 310, N^5-{4-[(4-chloro-2-methoxybenzoyl)amino]phenyl}-N^4-methyl-1H-imidazole-4,5-dicarboxamide]
36.5 µM | CN1CCN(CCNC(=O)c2[nH]cnc2C(=O)Nc2ccc(NC(=O)c3ccc(F)cc3)cc2)CC1 [Example 161, N^4-{4-[(4-fluorobenzoyl)amino]phenyl}-N^5-[2-(4-methylpiperazin-1-yl)ethyl]-1H-imidazole-4,5-dicarboxamide]
